These results are taken from patent US11970479B2, “3-(1H-pyrazol-4-yl)pyridine allosteric modulators of the M4 muscarinic acetylcholine receptor” (Merck Sharp & Dohme LLC, priority 2018, dated 2024).

The target in this assay is T1, human M4 muscarinic acetylcholine receptor (Homo sapiens, UniProt P08173).
T1 construct: expressed in transfected cells
T1 sequence (P08173 1-479): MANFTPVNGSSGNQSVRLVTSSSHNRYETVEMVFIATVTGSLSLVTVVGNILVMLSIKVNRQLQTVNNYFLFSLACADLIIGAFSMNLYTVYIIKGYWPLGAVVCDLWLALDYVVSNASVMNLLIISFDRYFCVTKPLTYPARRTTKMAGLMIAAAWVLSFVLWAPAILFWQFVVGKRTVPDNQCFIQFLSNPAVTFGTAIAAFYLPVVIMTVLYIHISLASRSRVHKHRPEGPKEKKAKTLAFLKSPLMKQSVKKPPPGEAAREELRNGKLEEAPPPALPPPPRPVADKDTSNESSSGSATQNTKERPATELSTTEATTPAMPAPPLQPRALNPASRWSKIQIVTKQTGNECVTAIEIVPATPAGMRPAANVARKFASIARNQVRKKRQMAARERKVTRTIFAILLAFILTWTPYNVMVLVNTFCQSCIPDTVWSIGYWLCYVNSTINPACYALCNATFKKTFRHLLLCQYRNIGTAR
Briefly: human FLIPR-based M4 PAM assay (CHO-K1 cells with human M4 receptor and Gαqi5, calcium dye fluorescence, EC20 acetylcholine). It is filed as cell-based. The conditions noted are these: inflection point (IP) of the dose response curve, human M4 receptor/Gαqi5, acetylcholine at 20% of maximum response, read-out: M4PAM Hu IP. A digest of the protocol: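 CHO-K1 cells stably expressing human M4 and chimeric Gαqi5 were dye-loaded ~1 h at 37° C. Test compound was added with fluorescence recorded 4 min, then acetylcholine at EC20 (sometimes a further EC70 addition) with reading 3.5 min. Value is the inflection point of a 4-parameter logistic fit.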
On to `CC1(C)CC1Cn1cc(-c2ccc(C#N)nc2-c2ccc3cccnc3c2)cn1` (stereo not drawn) [Example 103, 5-{1-[(2,2-dimethylcyclopropyl)methyl]-1H-pyrazol-4-yl}-6-quinolin-7-ylpyridine-2-carbonitrile], for which the EC50 was found to be 45 nM.
As for `COc1cc2ccc(-c3nc(C#N)ccc3-c3cnn(CC4(CC#N)CC4)c3)cc2nn1` [Example 104, 5-(1-{[1-(cyanomethyl)cyclopropyl]methyl}-1H-pyrazol-4-yl)-6-(3-methoxycinnolin-7-yl)pyridine-2-carbonitrile], the EC50 amounted to 154 nM.
Regarding `N#CCC1(Cn2cc(-c3ccc(C#N)nc3-c3ccc4cccnc4c3)cn2)CC1` [Example 105, 5-(1-{[1-(cyanomethyl)cyclopropyl]methyl}-1H-pyrazol-4-yl)-6-quinolin-7-ylpyridine-2-carbonitrile], the EC50 stood at 120 nM.
In the case of `c1cnc(-c2ccc3cccnc3c2)c(-c2cnn(CC3CCCCC3)c2)c1` [Example 106, 7-{3-[1-(cyclohexylmethyl)-1H-pyrazol-4-yl]pyridin-2-yl}quinoline], the EC50 was 93 nM.
The value for `COc1cc2ccc(-c3nc(C)ccc3-c3cnn(CC4CCCCC4)c3)cc2nn1` [Example 107, 7-{3-[1-(cyclohexylmethyl)-1H-pyrazol-4-yl]-6-methylpyridin-2-yl}-3-methoxycinnoline] was 16 nM; that for `COc1cc2ccc(-c3nc(C)ccc3-c3cnn(C4CCC(F)(F)CC4)c3)cc2nn1` [Example 108, 7-{3-[1-(4,4-difluorocyclohexyl)-1H-pyrazol-4-yl]-6-methylpyridin-2-yl}-3-methoxycinnoline] was 142 nM.
Take `CC(C)(C)Cn1cc(-c2ccc(C(F)F)nc2-c2ccc3cccnc3c2)cn1` [Example 109, 7-{6-(difluoromethyl)-3-[1-(2,2-dimethylpropyl)-1H-pyrazol-4-yl]pyridin-2-yl}quinoline]: the EC50 came to 48 nM.
Consider `CC(C)Cn1cc(-c2ccc(C#N)nc2-c2ccc3cccnc3c2)cn1` [Example 110, 5-[1-(2-methylpropyl)-1H-pyrazol-4-yl]-6-quinolin-7-ylpyridine-2-carbonitrile], for which the EC50 was determined as 129 nM.
The value for `N#Cc1ccc(-c2cnn(CC3(F)CC3)c2)c(-c2ccc3cccnc3c2)n1` [Example 111, 5-{1-[(1-fluorocyclopropyl)methyl]-1H-pyrazol-4-yl}-6-quinolin-7-ylpyridine-2-carbonitrile] was 110 nM; that for `COc1cc2ccc(-c3nc(C#N)ccc3-c3cnn(CC(F)(F)C(F)(F)F)c3)cc2nn1` [Example 112, 6-(3-methoxycinnolin-7-yl)-5-[1-(2,2,3,3,3-pentafluoropropyl)-1H-pyrazol-4-yl]pyridine-2-carbonitrile] was 138 nM.
As for `CC(C)(CO)Cn1cc(-c2ccc(C#N)nc2-c2ccc3cccnc3c2)cn1` [Example 113, 5-[1-(3-hydroxy-2,2-dimethylpropyl)-1H-pyrazol-4-yl]-6-quinolin-7-ylpyridine-2-carbonitrile], the figure is 139 nM; as for `COc1cc2ccc(-c3nc(C)ccc3-c3cnn(CC(C)(C)F)c3)cc2nn1` [Example 114, 7-{3-[1-(2-fluoro-2-methylpropyl)-1H-pyrazol-4-yl]-6-methylpyridin-2-yl}-3-methoxycinnoline], 191 nM.
On to `COc1cc2ccc(-c3nc(C(F)F)ccc3-c3cnn(CC(C)(C)F)c3)cc2nn1` [Example 115, 7-{6-(difluoromethyl)-3-[1-(2-fluoro-2-methylpropyl)-1H-pyrazol-4-yl]pyridin-2-yl}-3-methoxycinnoline], for which the EC50 worked out at 190 nM.
On to `N#Cc1ccc(-c2cnn(CC3(F)CCC3)c2)c(-c2ccc3cccnc3c2)n1` [Example 116, 5-{1-[(1-fluorocyclobutyl)methyl]-1H-pyrazol-4-yl}-6-quinolin-7-ylpyridine-2-carbonitrile], for which the EC50 amounted to 39 nM.
As for `CC(C)(O)C(F)(F)Cn1cc(-c2ccc(C#N)nc2-c2ccc3cccnc3c2)cn1` [Example 117, 5-[1-(2,2-difluoro-3-hydroxy-3-methylbutyl)-1H-pyrazol-4-yl]-6-quinolin-7-ylpyridine-2-carbonitrile], the figure is 104 nM.
